In patent US12673961B2 (Agios Pharmaceuticals, Inc., priority 2022, dated 2026):

The compounds below were run against T1, human PAH with the R408W mutation (Homo sapiens, UniProt P00439, R408W) (assay: Cell Based Phenylalanine Flux Assay). Conditions: A375 cells expressing human R408W PAH; 24 hrs with compound, then sepiapterin and 13C9,15N-Phenylalanine for 4 hours; 13C-Tyrosine by LC-MS; average where tested multiple times; read-out: AC50.
T1 construct: expressed in transfected cells
T1 sequence (P00439 1-452 R408W): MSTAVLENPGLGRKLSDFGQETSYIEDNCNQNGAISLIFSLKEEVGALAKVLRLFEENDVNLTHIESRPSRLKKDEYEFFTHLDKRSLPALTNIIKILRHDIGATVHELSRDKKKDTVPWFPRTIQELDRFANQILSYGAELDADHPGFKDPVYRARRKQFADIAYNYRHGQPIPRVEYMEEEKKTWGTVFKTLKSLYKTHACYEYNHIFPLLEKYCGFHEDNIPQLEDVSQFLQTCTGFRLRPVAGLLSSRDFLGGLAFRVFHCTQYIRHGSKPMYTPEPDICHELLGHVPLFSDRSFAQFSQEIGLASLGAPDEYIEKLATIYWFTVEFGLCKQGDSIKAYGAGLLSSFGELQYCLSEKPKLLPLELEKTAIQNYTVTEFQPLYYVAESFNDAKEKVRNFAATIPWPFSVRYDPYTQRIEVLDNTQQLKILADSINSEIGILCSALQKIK
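Note: Ten-point dose curve from 2-fold serial dilutions, run in duplicate at 0.5% DMSO final, tracer step used 20 µM sepiapterin and 800 µM labeled phenylalanine.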

AC50 [nM] | Structure (SMILES)
< 500 | Cc1c(-c2nnc(C(=O)N3CCc4[nH]cnc4[C@H]3c3cc4c(OC(F)(F)F)cccn4n3)o2)cnn1C [Example 1684, (S)-(5-(1,5-dimethyl-1H-pyrazol-4-yl)-1,3,4-oxadiazol-2-yl)-(4-(4-(trifluoromethoxy)pyrazolo[1,5-a]pyridin-2-yl)-6,7-dihydro-1H-imidazo [4,5-c]pyridin-5(4H)-yl)methanone]
500 to 1000 | Cc1ccc2c(C(=O)N3CCc4[nH]cnc4[C@H]3c3cc4c(C(F)F)cccn4n3)cnn2c1 [Example 1712, (S)-(4-(4-(difluoromethyl)pyrazolo[1,5-a]pyridin-2-yl)-6,7-dihydro-1H-imidazo [4,5-c]pyridin-5(4H)-yl)(6-methylpyrazolo[1,5-a]pyridin-3-yl)methanone]
> 5000 | O=C(c1cnn2cc(C3CC3)ccc12)N1CCc2[nH]cnc2[C@@H]1c1cc2c(C(F)(F)F)cccn2n1 [Example 1717, (R)-(6-cyclopropylpyrazolo [1,5-a]pyridin-3-yl)(4-(4-(trifluoromethyl)pyrazolo [1,5-a]pyridin-2-yl)-6,7-dihydro-1H-imidazo[4,5-c]pyridin-5(4H)-yl)methanone]
< 500 | O=C(c1nnc(C2CC2)o1)N1CCc2[nH]cnc2[C@H]1c1cc2c(OC(F)(F)F)cccn2n1 [Example 1724, (S)-(5-cyclopropyl-1,3,4-oxadiazol-2-yl)(4-(4-(trifluoromethoxy)pyrazolo [1,5-a]pyridin-2-yl)-6,7-dihydro-1H-imidazo[4,5-c]pyridin-5(4H)-yl)methanone]
< 500 | CN(C)c1ccc2c(C(=O)N3CCc4[nH]cnc4[C@H]3c3cc4c(C(F)(F)F)cccn4n3)cnn2c1 [Example 1746, (S)-(6-(dimethylamino)pyrazolo[1,5-a]pyridin-3-yl)(4-(4-(trifluoromethyl)pyrazolo [1,5-a]pyridin-2-yl)-6,7-dihydro-1H-imidazo[4,5-c]pyridin-5(4H)-yl)methanone]
500 to 1000 | COc1cccn2nc([C@@H]3c4nc[nH]c4CCN3C(=O)c3cnn4cc(-c5ccn(C)n5)ccc34)cc12 [Example 1748, (S)-(4-(4-methoxypyrazolo [1,5-a]pyridin-2-yl)-6,7-dihydro-1H-imidazo[4,5-c]pyridin-5(4H)-yl)(6-(1-methyl-1H-pyrazol-3-yl)pyrazolo[1,5-a]pyridin-3-yl)methanone]
500 to 1000 | FC(F)c1cccn2nc([C@H]3c4nc[nH]c4CCN3c3nnc(C(F)(F)F)o3)cc12 [Example 1766, (R)-2-(4-(4-(difluoromethyl)pyrazolo[1,5-a]pyridin-2-yl)-6,7-dihydro-1H-imidazo [4,5-c]pyridin-5(4H)-yl)-5-(trifluoromethyl)-1,3,4-oxadiazole]
500 to 1000 | CN(C)c1ccc2c(C(=O)N3CCc4[nH]cnc4[C@H]3c3cc4c(F)cccn4n3)cnn2c1 [Example 1772, (S)-(6-(dimethylamino)pyrazolo[1,5-a]pyridin-3-yl)(4-(4-fluoropyrazolo[1,5-a]pyridin-2-yl)-6,7-dihydro-1H-imidazo[4,5-c]pyridin-5(4H)-yl)methanone]
> 5000 | Fc1cccn2nc([C@H]3c4nc[nH]c4CCN3c3nnc(C(F)(F)F)o3)cc12 [Example 1822, (R)-2-(4-(4-fluoropyrazolo [1,5-a]pyridin-2-yl)-6,7-dihydro-1H-imidazo [4,5-c]pyridin-5(4H)-yl)-5-(trifluoromethyl)-1,3,4-oxadiazole]

More lines, now with the values behind:

Structure (SMILES) | AC50 [nM]
Clc1cccn2nc([C@H]3c4nc[nH]c4CCN3c3nnc(-c4ccccn4)o3)cc12 [Example 1622, (R)-2-(4-(4-chloropyrazolo [1,5-a]pyridin-2-yl)-6,7-dihydro-1H-imidazo[4,5-c]pyridin-5(4H)-yl)-5-(pyridin-2-yl)-1,3,4-oxadiazole] | 1000 to 5000
FC(F)c1cccc2cc([C@H]3c4nc[nH]c4CCN3c3nnc(-c4ccccn4)o3)nn12 [Example 1627, (R)-2-(4-(7-(difluoromethyl)pyrazolo[1,5-a]pyridin-2-yl)-6,7-dihydro-1H-imidazo [4,5-c]pyridin-5(4H)-yl)-5-(pyridin-2-yl)-1,3,4-oxadiazole] | > 5000
COCc1ccc2c(C(=O)N3CCc4[nH]cnc4[C@H]3c3cc4c(F)cccn4n3)cnn2c1 [Example 1628, (4-(4-fluoropyrazolo[1,5-a]pyridin-2-yl)-6,7-dihydro-1H-imidazo[4,5-c]pyridin-5(4H)-yl)(6-(methoxymethyl)pyrazolo[1,5-a]pyridin-3-yl)methanone] | 500 to 1000
Clc1cccc2cc([C@@H]3c4nc[nH]c4CCN3c3nnc(-c4ccccn4)o3)nn12 [Example 1639, (S)-2-(4-(7-chloropyrazolo [1,5-a]pyridin-2-yl)-6,7-dihydro-1H-imidazo[4,5-c]pyridin-5(4H)-yl)-5-(pyridin-2-yl)-1,3,4-oxadiazole] | 500 to 1000
Cc1cccc2cc([C@H]3c4nc[nH]c4CCN3c3nnc(-c4ccccn4)o3)nn12 [Example 1641, (R)-2-(4-(7-methylpyrazolo [1,5-a]pyridin-2-yl)-6,7-dihydro-1H-imidazo[4,5-c]pyridin-5(4H)-yl)-5-(pyridin-2-yl)-1,3,4-oxadiazole] | > 5000
COCc1ccc2c(C(=O)N3CCc4[nH]cnc4[C@H]3c3cc4c(Cl)cccn4n3)cnn2c1 [Example 1650, (S)-(4-(4-chloropyrazolo [1,5-a]pyridin-2-yl)-6,7-dihydro-1H-imidazo [4,5-c]pyridin-5(4H)-yl)(6-(methoxymethyl)pyrazolo [1,5-a]pyridin-3-yl)methanone] | 500 to 1000
Cc1ccc2c(C(=O)N3CCc4[nH]cnc4[C@H]3c3cc4c(C(F)(F)F)cccn4n3)cnn2c1 [Example 1666, (S)-(6-methylpyrazolo [1,5-a]pyridin-3-yl)(4-(4-(trifluoromethyl)pyrazolo [1,5-a]pyridin-2-yl)-6,7-dihydro-1H-imidazo[4,5-c]pyridin-5(4H)-yl)methanone] | 500 to 1000
Cc1ccc2c(C(=O)N3CCc4[nH]cnc4[C@H]3c3cc4c(C)cccn4n3)cnn2c1 [Example 1668, (S)-(4-(4-methylpyrazolo [1,5-a]pyridin-2-yl)-6,7-dihydro-1H-imidazo [4,5-c]pyridin-5(4H)-yl)(6-methylpyrazolo[1,5-a]pyridin-3-yl)methanone] | 500 to 1000
O=C(c1cnn2cc(C3CC3)ccc12)N1CCc2[nH]cnc2[C@@H]1c1cc2c(F)cccn2n1 [Example 1673, (R)-(6-cyclopropylpyrazolo [1,5-a]pyridin-3-yl)(4-(4-fluoropyrazolo[1,5-a]pyridin-2-yl)-6,7-dihydro-1H-imidazo[4,5-c]pyridin-5(4H)-yl)methanone] | > 5000
FC(F)(F)c1cccn2nc([C@H]3c4nc[nH]c4CCN3c3ncccn3)cc12 [Example 1693, (R)-5-(pyrimidin-2-yl)-4-(4-(trifluoromethyl)pyrazolo [1,5-a]pyridin-2-yl)-4,5,6,7-tetrahydro-1H-imidazo [4,5-c]pyridine] | 1000 to 5000
Fc1cccn2nc([C@@H]3c4nc[nH]c4CCN3c3ncc(C(F)(F)F)cn3)cc12 [Example 1778, (S)-4-(4-fluoropyrazolo [1,5-a]pyridin-2-yl)-5-(5-(trifluoromethyl)pyrimidin-2-yl)-4,5,6,7-tetrahydro-1H-imidazo[4,5-c]pyridine] | < 500
Cc1cccc2cc([C@@H]3c4nc[nH]c4CCN3c3ncc(C(F)(F)F)cn3)nn12 [Example 1802, (S)-4-(7-methylpyrazolo [1,5-a]pyridin-2-yl)-5-(5-(trifluoromethyl)pyrimidin-2-yl)-4,5,6,7-tetrahydro-1H-imidazo[4,5-c]pyridine] | 500 to 1000
